The source of these data is article PMC4164784, “4E-BPs require non-canonical 4E-binding motifs and a lateral surface of eIF4E to repress translation” (Nature Communications, 2014).

One experiment has as its system CRM1. The arrangement: method as in PMID 15465908, PMID 10856257, PMID 9190288. Particulars: cited from earlier work.
The subject of experiment [1] is endogenous eIF4E and HA-tagged 4E-BPs in S2 cells. In words: Immunofluorescence localization in S2 cells. The format is cell-based, Drosophila melanogaster. Particulars: S2 cells, LMB 100 nM, 12 h.
In another experiment the test system is eIF4E. The conditions noted are these: 4E-BP1,2 non-canonical motifs; cited from earlier work. An excerpt:
The immunoprecipitation assays shown in Fig. 1e–g indicate that similar to CUP, Thor and 4E-T contain NC motifs that interact with the lateral binding surface of eIF4E. In human 4E-BP1,2, the NC IPGVTS/T motif (located C-terminally to the C motif), increases the binding affinity of the proteins for eIF4E by approximately three orders of magnitude. However, the IPGVTS/T motif is not conserved across the animal kingdom (Supplementary Fig. 2c). Nevertheless, several hydrophobic residues are present in the corresponding region in Dm Thor (residues Pro76–Pro84; Supplementary Fig. 2c). || Owing to their lack of conservation, it has remained unclear whether non-canonical motifs are present in all 4E-BPs[38]. […] At the functional level, non-canonical motifs have been proposed to play an auxiliary role and have been mainly implicated in the regulation of the affinity of eIF4E for the mRNA cap structure through allosteric effects. Specifically, the binding of the 4E-BP1,2 non-canonical ...

On to `CCC(=C/[C@H](C)C/C=C/C(C)=C/[C@@H](C)C(=O)[C@@H](C)[C@H](O)[C@@H](C)C/C(C)=C/C(=O)O)/C=C/[C@@H]1OC(=O)C=C[C@@H]1C` [LMB, Leptomycin B, reference compound], for which the “inhibition of nuclear export by CRM1 (in words)” value in the experiment on CRM1 is given as “inhibits nuclear export by CRM1”. Also, the “nuclear accumulation of 4E-BP upon LMB (in words)” value in experiment [1] is “induced the nuclear accumulation of CUP and 4E-T proteins”.
As for “human 4E-BP1,2: human eIF4E-binding proteins 1 and 2 with NC IPGVTS/T motif”, the “effect of NC motif binding on affinity of eIF4E for the cap structure (in words)” value in the experiment on eIF4E is listed as “increases the affinity for the cap structure”.
